pEC50: −log10 of the molar value.
How the values were obtained:
[1] = target: T1, GPR37 (Homo sapiens, UniProt O15354); experiment: lipid overlay dot blot: ligand-coated PVDF membrane with lysates of HEK293T cells with and without GPR37
T1 sequence (O15354 27-613): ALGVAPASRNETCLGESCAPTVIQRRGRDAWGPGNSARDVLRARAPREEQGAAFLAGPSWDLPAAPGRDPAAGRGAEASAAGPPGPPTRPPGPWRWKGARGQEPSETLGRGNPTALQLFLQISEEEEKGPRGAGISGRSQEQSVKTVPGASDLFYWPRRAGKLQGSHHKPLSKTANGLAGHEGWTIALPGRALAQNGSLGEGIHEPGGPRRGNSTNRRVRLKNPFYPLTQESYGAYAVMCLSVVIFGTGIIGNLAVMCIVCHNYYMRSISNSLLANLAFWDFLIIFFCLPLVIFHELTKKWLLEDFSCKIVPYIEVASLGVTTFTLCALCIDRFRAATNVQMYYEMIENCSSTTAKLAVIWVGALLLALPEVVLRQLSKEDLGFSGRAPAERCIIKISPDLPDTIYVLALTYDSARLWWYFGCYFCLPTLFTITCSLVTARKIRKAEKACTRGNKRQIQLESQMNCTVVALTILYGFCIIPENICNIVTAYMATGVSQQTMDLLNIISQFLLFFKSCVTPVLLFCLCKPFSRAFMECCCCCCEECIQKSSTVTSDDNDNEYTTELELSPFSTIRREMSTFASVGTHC

[2] = target: T1, GPR37; experiment: Ca2+ imaging in HEK293T cells expressing human GPR37 versus mock; lipid overlay dot blot with GPR37-HEK293T lysate; assay type: cell-based

| SMILES | lipid overlay dot blot: ligand-coated PVDF membrane with lysates of HEK293T cell [1] | pEC50 [2] |
| --- | --- | --- |
| CC/C=C\C[C@H](O)\C=C/C=C/C=C/[C@H](O)C/C=C\C/C=C\CCC(=O)O [NPD1, neuroprotectin D1] | Lipid overlay assays further confirmed direct binding of PDX and NPD1 to GPR37 | – |
| CC/C=C\C[C@H](O)/C=C/C=C\C=C\[C@@H](O)C/C=C\C/C=C\CCC(=O)O [PDX, Protectin DX] | – | 7.63 |

— PMC12807480, “Protectin DX resolves fracture-induced postoperative pain in mice via neuronal signaling and GPR37-activated macrophage efferocytosis” (The Journal of Clinical Investigation, 2026)
